For test [1], the target named is T1, human EGF (epithelial cell growth factor) receptor tyrosine kinase (Homo sapiens, UniProt P00533).
T1 construct: to obtain an A431 cell membrane fraction, and this fraction was provided for measurement as a partially purified EGF receptor; endogenous in cells; host or cells: A431 (human squamous cell carcinoma), membrane fraction
The test can be described thus: Tyrosine kinase inhibiting activity (EGF receptor partially purified from A431 cell membrane fraction, RR-SRC peptide substrate, gamma-32P-ATP). The note with it: 10 μM ATP, 1% DMSO, in ice for 30 minutes. Format: biochemical. How it is done:
(§1) In order to evaluate the tyrosine kinase inhibiting activity and the cancer cell growth inhibiting activity of the compound of the present invention, tests were carried out in a partially purified human EGF ([…]) receptor tyrosine kinase activity measuring system and a cell culture system using human cancerous cells.
(Tyrosine kinase inhibiting activity)
The tyrosine kinase inhibiting activity was measured by using an EGF receptor which was partially purified from an A431 cell line derived from human squamous cell carcinoma and by improving the tyrosine kinase activity measurement method described in Linda J. Pike et al., Proceedings of the National Academy of Sciences of the U.S.A. 79, 1443 (1982).
The detailed method is as described below.
A431 cells were cultured in a Dulbecco modified Eagle's medium (DMEM) containing 10% fetal calf serum (FCS), at 37° C. under 5% carbonic acid gas. The cells were homogenized in a solution containing 10 mM N-2-hydroxyethylpiperazino-N'-2-ethanesulfonic acid (Hepes) buffer (pH 7.4), 0.25M saccharose and 0.1 mM EDTA and then centrifuged at 3000 g for 5 minutes. Further, a supernatant thereof was centrifuged at 10000× g for 30 minutes to obtain an A431 cell membrane fraction, and this fraction was provided for measurement as a partially purified EGF receptor which was an enzyme source.
To a reaction mixture of the above-mentioned A431 cell membrane fraction (10 to 15 μg), a 30 mM Hepes buffer (pH 7.7), 2 mM MnCl2, 50 μM Na3 VO4 and a sample dissolved in dimethylsulfoxide (DMSO) (final concentration: 1% DMSO) was added 100 ng of EGF, and then 75 μg of a synthetic substrate RR-SRC peptide (a peptide described in Sequence No. 1) and 10 μM gamma-^32 P-adenosine triphosphoric acid (37 to 42 KBq) were added thereto to start a reaction.
The volume at that time was 60 μl.
The reaction was carried out in ice for 30 minutes, and the reaction was terminated by adding 6 μl of 10 mg/ml bovine serum albumin and 25 μl of 20% trichloroacetic acid. The reaction mixture was left to stand in ice for 30 minutes.
Next, after the mixture was centrifuged at 5000× g for 2 minutes, 40 μl of the supernatant was sampled and adsorbed to P81 phosphocellulose paper.
This was dipped in a 30% acetic acid solution for 15 minutes to fix, washed by dipping in a 15% acetic acid solution for 15 minutes (washing was repeated four times) and measured the count of ^32 P attached to P81 phosphocellulose paper by a liquid scintillation counter, and this value was defined as A.
At the same time, the counts of a reaction in which the sample tested was not added and a reaction in which both the sample and EGF were not added were measured and were defined as B and C, respectively.
The tyrosine kinase inhibiting rate is determined by the following formula.
Inhibiting rate (%)=100-{(B-A)/(B-C)}×100
From the inhibiting rate obtained by changing the addition concentration of the sample, an IC50 value (50% inhibiting concentration) was calculated.

In test [2] the test system is KB cells of human rhinopharyngeal cancer. The experiment in a line: Cancer cell growth inhibiting activity (KB cells, MTT). Format: cell-based. The note with it: read-out: Cancer cell growth inhibiting activity (IC50). How it is done: as §1
(Cancer cell growth inhibiting activity)
KB cells of human rhinopharyngeal cancer retain EGF receptor on cellular surfaces thereof excessively.
By using these KB cells, investigation of the effect of a sample on growth of cultured cancer cells was carried out by the following method.
2.5×10^3 cells/well of KB cells were sowed on a 96 well dish and cultured in a DMEM:F12 (1:1) medium containing 10% FCS, 50 U/ml penicillin and 50 μg/ml of streptomycin, under conditions of 37° C. and 5% carbonic acid gas for 1 day. Thereafter, a sample dissolved in DMSO was added to the medium (DMSO final concentration: <0.1%) and cultured under the above conditions for 3 days. The sample and the medium were replaced every 24 hours.
The count of the number of living cells was determined by calorimetric quantitation at two wavelengths of 540 nm and 660 nm using a MTT reagent by referring to the measurement method described in Michael C.
At the same time, the count of the number of living cells when the sample was not added was also measured, and the value was defined as b.
The cell growth inhibiting rate was determined by the following formula.
Inhibiting rate (%)=(b-a)/b×100

[3] abbreviates: KB cells, 3 days, sample and medium replaced every 24 hours, MTT.

Molecules are shown by their SMILES. Read-outs that look alike come from different tables or passages of the source.

T1 sequence (P00533 25-1210): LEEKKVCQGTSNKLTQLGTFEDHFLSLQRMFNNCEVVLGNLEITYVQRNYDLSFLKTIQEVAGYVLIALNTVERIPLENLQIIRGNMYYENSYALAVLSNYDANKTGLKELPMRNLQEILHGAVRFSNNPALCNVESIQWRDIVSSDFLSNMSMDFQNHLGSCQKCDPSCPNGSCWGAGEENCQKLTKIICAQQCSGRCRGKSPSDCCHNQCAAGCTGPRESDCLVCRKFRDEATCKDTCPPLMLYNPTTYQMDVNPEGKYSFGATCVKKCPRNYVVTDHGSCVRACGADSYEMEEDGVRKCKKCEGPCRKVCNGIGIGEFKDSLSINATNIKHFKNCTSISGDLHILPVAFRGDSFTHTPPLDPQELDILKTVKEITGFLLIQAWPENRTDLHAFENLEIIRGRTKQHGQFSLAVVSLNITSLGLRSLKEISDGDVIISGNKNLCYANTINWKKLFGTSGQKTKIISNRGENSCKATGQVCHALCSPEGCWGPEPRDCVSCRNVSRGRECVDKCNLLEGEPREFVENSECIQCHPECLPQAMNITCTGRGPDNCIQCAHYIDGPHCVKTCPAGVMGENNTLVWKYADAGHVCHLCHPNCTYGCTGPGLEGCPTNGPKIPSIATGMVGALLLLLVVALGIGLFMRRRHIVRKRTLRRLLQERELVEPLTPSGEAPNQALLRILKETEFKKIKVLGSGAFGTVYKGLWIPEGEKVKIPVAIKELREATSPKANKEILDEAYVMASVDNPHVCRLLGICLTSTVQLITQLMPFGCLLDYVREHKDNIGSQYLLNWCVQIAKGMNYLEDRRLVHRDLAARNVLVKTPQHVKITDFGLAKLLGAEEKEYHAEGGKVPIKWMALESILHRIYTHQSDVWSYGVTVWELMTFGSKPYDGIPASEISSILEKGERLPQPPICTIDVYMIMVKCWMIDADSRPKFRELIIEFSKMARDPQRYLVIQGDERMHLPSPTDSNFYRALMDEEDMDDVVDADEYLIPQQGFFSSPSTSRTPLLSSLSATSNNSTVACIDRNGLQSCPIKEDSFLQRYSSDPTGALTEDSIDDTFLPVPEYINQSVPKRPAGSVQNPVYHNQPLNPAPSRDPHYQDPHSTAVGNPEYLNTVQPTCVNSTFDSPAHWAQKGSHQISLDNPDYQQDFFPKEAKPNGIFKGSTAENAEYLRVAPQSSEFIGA

For the compound `COc1ccc(C(=O)C=CCN2CCCCC2)cc1OC` [compound 97], the IC50 in test [1] was 8.2 µM; in test [2] (KB), 2.6 µM.
For the compound `COC(=O)C=CC(=O)c1ccc(OC)c(OC)c1` [compound 26], the figures for the IC50 in test [1] and in test [2] (KB) were 0.86 µM and 1.9 µM, respectively.
The corresponding values for `CCN(CC)C(C)(C)C(=CC(=O)c1ccc(OC)c(OC)c1)S(=O)(=O)c1cccs1` [compound 352] are 0.47 µM and 0.63 µM.
The like results for `COc1ccc(C(=O)C=CC#N)cc1OC` [compound 5] were, in that order, 0.34 µM and 0.62 µM.
On to `CCN(CC)C(C)(C)C(=CC(=O)c1ccc(OC)c(OC)c1)S(=O)(=O)c1ccc([N+](=O)[O-])cc1` [compound 350], for which the IC50 in test [1] turned out to be 1.4 µM; in test [2] (KB), 0.57 µM.
The corresponding values for `COc1ccc(C(=O)C=C(CN(C(C)C)C(C)C)S(=O)(=O)c2ccccc2)cc1OC` [compound 335] are 27.9 µM and 3.1 µM.
As to `CCN(CC)C(C)(C)C(C#N)=CC(=O)c1ccc(OC)c(OC)c1` [compound 349], the IC50 in test [1] worked out at 5.8 µM; in test [2] (setting [3]), 2 µM.
`CC(C(=O)Nc1ccccc1)=C(C)C(=O)c1ccccc1` [compound 253]: the IC50 was determined as 38 µM in test [1] and 0.42 µM in test [2] (KB).
Take `COc1ccc(C(=O)C=C(C(C)(C)N2CCC(C)CC2)S(=O)(=O)c2ccccc2)cc1OC` [compound 327]: the IC50 came out at 27.3 µM in test [1] and 5 µM in test [2] (setting [3]).
Consider `CCN(CC)C(C)(C)C(=CC(=O)c1ccc(OC)c(OC)c1)S(=O)(=O)c1ccc(C)cc1` [compound 293], for which the results for the IC50 in test [1] and in test [2] (KB) were 1.1 µM and 0.23 µM, respectively.
Consider `COC(=O)C=CC(=O)c1ccc(OC)cc1` [compound 29], for which the IC50 in test [1] is 9.4 µM; in test [2] (KB) it was 3.9 µM.
The like results for `COc1cc(C(=O)C=C(C(C)(C)N2CCCCC2)S(=O)(=O)c2ccccc2)cc2c1OCO2` [compound 290] were, in that order, 5 µM and 0.83 µM.
Regarding `CCN(CC)C(C)(C)C(=CC(=O)c1ccc(OC)c(OC)c1)S(=O)(=O)c1ccccc1` [compound 278], the figures for the IC50 in test [1] and in test [2] (KB) were 1.7 µM and 0.95 µM, respectively.

The term IC50 denotes the concentration needed to halve the response being measured.
